Laboratory results published in publication PMC6095626, “Screening of the Pathogen Box for inhibitors with dual efficacy against Giardia lamblia and Cryptosporidium parvum” (PLoS Neglected Tropical Diseases, 2018).

Experiments:
[1] = system: C. parvum (UGA1 Nluc expressing strain in HCT-8 cells); experiment: microbe, parasite or virus in culture; type: cell-based, Cryptosporidium parvum; conditions: for Crypto (10 uM) Mean % inhibition: initial Pathogen Box screen, single concentration 10 µM, inhibition compared to DMSO wells
Protocol: Growth inhibition and EC50 determination assays were performed using UGA1 Nluc expressing C. parvum strain in HCT-8 cells (ATCC^©, Manassas, VA) as previously described. HCT-8 cells were inoculated onto 96-well plates and allowed to grow for 48 hours to 90–100% confluence and then treated with single concentration (10 μM) or serially diluted compounds prior to oocyst infection. C. parvum oocysts were incubated for 10 minutes in 10% bleach at room temperature and then washed with DPBS. […] The cell monolayers were lysed for 1 hour before adding Nano-Glo® luciferase reagent (Promega, Madison, WI), and measuring relative luminescence units (RLU) in an EnVision Plate Reader (Perkin Elmer, Waltham, MA). Several parameters, including reproducibility and reliability, were previously evaluated to optimize this assay for low and high-throughput (HTP) screening of small molecule compounds against C. parvum. EC50 values were calculated using Prism 7 software (GraphPad Software, San Diego, CA).
C. parvum screening against the Pathogen Box compounds was performed as previously described starting at a concentration of 10 μM [23].

[2] = system: G. lamblia trophozoites (luciferase expressing, WBC6); experiment: microbe, parasite or virus in culture; type: cell-based, Giardia lamblia; conditions: initial Pathogen Box screen, single concentration 16 µM, inhibition compared to DMSO wells
Protocol: Trophozoites were harvested by chilling cultures on ice for 30 minutes and plated by adding 150 μL per well at a concentration of 250,000 cells/mL. Metronidazole (Sigma, St. Louis, MO) was used as a control and was serially diluted 1:2 from 40 μM to 0.04 μM and 150 μL was added to the 150 μL of the G. lamblia trophozoites. Plates were covered in plastic low-evaporation lids, sealed in individual anaerobic BD GasPak Bio-Bags (Becton Dickinson, San Jose, CA) and incubated at 37 °C for 24 hours. […] A duplicate plate was concurrently set up and assayed using a MOXI Z Mini Automated Cell Counter Kit (Orflo, Ketchum, ID). Results obtained from the bioluminescence assay and the MOXI counter data were compared to evaluate their correlation to each another. Albendazole (Sigma, St. Louis, MO), an alternative giardiasis therapeutic, was assayed in concentrations from 4 μM to 0.004 μM with only the luciferase expressing G. lamblia cells. […]

Compound | Crypto (10 uM) Mean % inhibition [1] | Giardia (16 uM) Mean % inhibition [2] | C. parvum cell growth inhibition in the initial screen ([1]; 10 μM, 48 hours) | EC50 ([1]; Nluc C. parvum in HCT-8 cells, 48 hours, read-out: C. parvum EC50)
COc1ccc(CCN2CCC(NCc3cccc(N(C)C)c3)CC2)cc1 [MMV011511] | X* (Mean or standard deviation are negative but not significantly different from the control to be a growth promoter) | 73% |  | 
NCC(=O)N1CCn2c(nc(-c3ccccc3)c2Nc2ccc3c(c2)OCO3)C1 [MMV011691] | X* (Mean or standard deviation are negative but not significantly different from the control to be a growth promoter) | 20% |  | 
FC(F)(F)c1cnc(Sc2nnc(-c3ccncc3)o2)c(Cl)c1 [MMV011765] | 89% | 53% |  | 
Cc1ccc(NC(=O)c2nc[nH]c2C(=O)Nc2nc3ccccc3[nH]2)c(C)c1 [MMV011903] | 62% | 21% |  | 
Cc1nc2ccccn2c1C(=O)NCc1ccc(Cl)cc1 [MMV012074] | 57% | 14% |  | 
Cc1cc(Nc2ccncc2)n2nc(C)c(-c3ccccc3Cl)c2n1 [MMV016136] | 46% | X* (Mean or standard deviation are negative but not significantly different from the control to be a growth promoter) |  | 
Cc1ccc(-c2cc(C(=O)Nc3cccnc3)c3cc(Br)ccc3n2)cc1 [MMV016838] | 42% | 63% |  | 
Cc1cc(C)n2nc(C(=O)Nc3cc(C(F)(F)F)ccc3N3CCOCC3)nc2n1 [MMV019087] | 35% | X* (Mean or standard deviation are negative but not significantly different from the control to be a growth promoter) |  | 
Cc1ccc2c(c1C)NC(=O)C21NN=C(c2ccccc2)S1 (stereo not shown) [MMV019189] | 95% | X* (Mean or standard deviation are negative but not significantly different from the control to be a growth promoter) | ≥ 95% | 2520 nM
COc1ccc(C2CC(c3cccs3)=NN2C(=O)c2ccco2)cc1OC (stereo not shown) [MMV019234] | X* (Mean or standard deviation are negative but not significantly different from the control to be a growth promoter) | 20% |  | 
CCC(NC(=O)c1ccccc1NC(=O)c1ccc(C)cc1)C(=O)OC (stereo not shown) [MMV019551] | 23% | 5.53% |  | 
CCN(CC)S(=O)(=O)c1ccc(Cl)c(C(=O)Nc2ccc3nc(C)sc3c2)c1 [MMV019721] | 82% | 15% |  | 
Cc1ccc(S(=O)(=O)N2CCN(C(=O)c3cc(-c4ccccc4)n[nH]3)CC2)cc1 [MMV019742] | X* (Mean or standard deviation are negative but not significantly different from the control to be a growth promoter) | X* (Mean or standard deviation are negative but not significantly different from the control to be a growth promoter) |  | 
CCOc1ccccc1C(=O)Nc1cccc(-c2nc3ncccn3c2C)c1 [MMV019790] | X* (Mean or standard deviation are negative but not significantly different from the control to be a growth promoter) | X* (Mean or standard deviation are negative but not significantly different from the control to be a growth promoter) |  | 
Cc1ccc2cc(C3NC(=O)c4ccccc4N3)c(Cl)nc2c1 (stereo not shown) [MMV019807] | 79% | 24% |  | 
O=C(Nc1ccnc(-c2cccnc2)n1)c1cc(C(F)(F)F)cc(C(F)(F)F)c1 [MMV019838] | 71% | 16% |  | 
Cc1nn(C)cc1C(C)Nc1nncc(-c2ccc(C(F)(F)F)cc2)n1 (stereo not shown) [MMV019993] | X* (Mean or standard deviation are negative but not significantly different from the control to be a growth promoter) | 22% |  | 
COc1cccc(CC(=O)N2CCC(n3c(C)nc4ccc(F)cc43)CC2)c1 [MMV020081] | X* (Mean or standard deviation are negative but not significantly different from the control to be a growth promoter) | X* (Mean or standard deviation are negative but not significantly different from the control to be a growth promoter) |  | 
CC1CC1C(=O)NC1CCN(CC2(c3ccccc3)CCCCC2)CC1 (stereo not shown) [MMV020120] | 66% | 2.27% |  | 
CNC(=O)c1cc(S(=O)(=O)N2CCN(c3ccccn3)CC2)cs1 [MMV020136] | X* (Mean or standard deviation are negative but not significantly different from the control to be a growth promoter) | X* (Mean or standard deviation are negative but not significantly different from the control to be a growth promoter) |  | 
Cc1cc(C(=O)Nc2ccc(-c3ccccc3)cc2)no1 [MMV020152] | X* (Mean or standard deviation are negative but not significantly different from the control to be a growth promoter) | 43% |  | 
CC(C)NCC(=O)Nc1cccc(C(=O)Nc2cccc(C(F)(F)F)c2)c1 [MMV020165] | 45% | 81% |  | 
Cc1ccc(NC(=O)c2cc(S(=O)(=O)NC(C)(C)C)ccc2C)nc1 [MMV020289] | X* (Mean or standard deviation are negative but not significantly different from the control to be a growth promoter) | 26% |  | 
CC(C(=O)N1CCCC1)N1CCN(S(=O)(=O)c2ccc(C(C)(C)C)cc2)CC1 (stereo not shown) [MMV020291] | 61% | 13% |  | 
Cc1nnc(NC(=O)c2cn(-c3ccccc3)nc2-c2ccccc2C)o1 [MMV020320] | 91% | X* (Mean or standard deviation are negative but not significantly different from the control to be a growth promoter) |  | 
COc1ccccc1C(C)NCC(=O)Nc1cc(C(F)(F)F)ccc1Cl (stereo not shown) [MMV020321] | 83% | X* (Mean or standard deviation are negative but not significantly different from the control to be a growth promoter) |  | 
CC1CCCN(C(=O)C(C)Nc2cc(Cl)ccc2N2CCOCC2)C1 (stereo not shown) [MMV020388] | X* (Mean or standard deviation are negative but not significantly different from the control to be a growth promoter) | 62% |  | 
CC(C)C(C(=O)Nc1ccc(S(=O)(=O)N(C)C)cc1)c1ccc(Cl)cc1 (stereo not shown) [MMV020391] | 67% | 8% |  | 
